Reference: the NIST ThermoML archive (doi:10.1016/j.jct.2011.09.008)
Numbers after ± are expanded uncertainties.

Assays:
[1] = 101 kPa, Liquid, Sing-around technique in a fixed-path interferometer
[2] = xn = mol fraction of the nth substance listed; details: 283.15 K; 101 kPa; Liquid; Sing-around technique in a fixed-path interferometer; x2 = 0

speed of sound ([1]; 283.15 K) [m/s]	speed of sound ([1]; 288.15 K) [m/s]	speed of sound ([1]; 293.15 K) [m/s]	speed of sound ([1]; 298.15 K) [m/s]	speed of sound ([1]; 303.15 K) [m/s]	speed of sound [2] [m/s]	Structure (SMILES)
1301.9 ± 1.5	1283.2 ± 1.5	1264.5 ± 1.5	1245.8 ± 1.5	1227.3 ± 1.5		CCCOCC(C)O (stereo unspecified) [1-propoxy-2-propanol]
					1447.3 ± 1.2	O [water] + CCCOCC(C)O
